Structures can show the parent of a compound that is named as a salt. Where two headings read alike, the source gives them in different places. One block for each compound: values may come before it.
Key:
H7299 = test: In vitro antiproliferation assay, H7299; format: cell-based
[1] = test system: H1299 (non-small cell lung carcinoma); test: In vitro antiproliferation assay, H1299; format: cell-based
A549 (lung carcinoma) = test: In vitro antiproliferation assay, A549; format: cell-based
[2] = test system: THP-1 (monocyte acute monocytic leukemia); test: In vitro antiproliferation assay, THP-1; format: cell-based
[3] = test system: DU145 (prostate carcinoma); test: In vitro antiproliferation assay, DU145; format: cell-based
[4] = test system: variety of different tumor cell lines; test: In vitro antiproliferation assays, summary over the tumor cell lines tested; format: cell-based; conditions: for IC50's against tumor cell lines, tested as isolated stereoisomers: general range over the cell lines
Text: The cis racemate of structural formula (IIa) can be referred to as the 2-exo-3-exo racemate, and includes the (1R,2R,3S,4S) and (1S,2S,3R,4R) diastereomers of structural formulae (Ia) and (Ib), respectively. The cis racemate of structural formula (IIb) can be referred to as the 2-endo-3-endo racemate, and includes the (1R,2S,3R,4S) and (1S,2R,3S,4R) diastereomers of structural formulae (Ic) and (Id), respectively. […] Moreover, it has been discovered that the (1R,2R,3S,4S) diastereomer of racemate r1 is largely responsible for the potency of the racemate r1.

Aurora kinase-B = molecular target: T1, Aurora kinase-B (Homo sapiens, UniProt Q96GD4); test: Functional cellular assay of Aurora kinase-B, phosphorylation of histone H3 in A549 cells; format: cell-based
T1 construct: endogenous in cells; host or cells: A549 cells
Method: Compounds 60a and 60b were tested for their ability to inhibit Aurora kinase-B in a functional cellular assay involving phosphorylation of its substrate, histone H3. For the assay, A549 cells were seeded into the wells of a microtiter tray (5000 cells/well in 100 μl F12K media) late in the afternoon on Day 1. The cells were grown overnight (37° C., 5% CO2). On Day 2, 50 μl nocodazole (1 μM in media) was added to each well, giving a final concentration of 333 nM. Cells were grown for an additional 18 hrs under the same conditions.
On Day 3, 50 μl aliguots of varying concentrations of test compound were added to the wells. […] The cells were then stained with a secondary antibody labeled with a fluorescent dye (secondary antibody donkey anti-mouse AlexFluor 488 (Invitrogen Molecular Probes; 1:2000) and DAPI (1:15,000 of 1 mg/ml stock) for 1 hr at room temperature, washed three times with DPBS (200 μl/well) and stored under DPBS (100 μl/well) at 4° C. until ready for analysis.
A Zeiss Axiovert S100 inverted fluorescent microscope with a Plan-NEOFLUAR 10× objective, a Hamamatsu Lightningcure 200 Mercury-Xenon light source and an Omega Optical XF57 quad filter was used for all data collection. […] Images were captured and analyzed in 12-bit format using segmentation and morphological routines contained in the Image Pro software package. […]

U2OS (bone osteosarcoma) = test: In vitro antiproliferation assay, U2OS; format: cell-based; conditions: U20S
[5] = test system: L1210 (mouse lymphocytic leukemia); test: In vitro antiproliferation assay, L1210; format: cell-based
[6] = test system: K562 (bone marrow chronic myelogenous leukemia); test: In vitro antiproliferation assay, K562; format: cell-based
[7] = test system: SK-OV-3 (ovarian adenocarcinoma); test: In vitro antiproliferation assay, SK-OV-3; format: cell-based; conditions: Homo sapiens, SKOV3
[8] = Pharmacokinetics in monkeys, plasma concentration over time; format: in vivo
Method: Compound 60a was administered to monkeys intravenously (1 mg/kg in saline) and orally (5 mg/kg in saline) and the plasma concentrations monitored over time.

[9] = test system: SW620 (colorectal adenocarcinoma); test: In vitro antiproliferation assay, SW620; format: cell-based
[10] = test system: SU86.86 (pancreatic carcinoma); test: In vitro antiproliferation assay, SU86.86; format: cell-based; conditions: Homo sapiens, SU.86.86
[11] = test system: PC3 (prostate adenocarcinoma); test: In vitro antiproliferation assay, PC3; format: cell-based
[12] = test system: ASPC-1 (pancreatic adenocarcinoma); test: In vitro antiproliferation assay, ASPC-1; format: cell-based; conditions: ASPC1
[13] = test system: H460 (large cell lung carcinoma); conditions: read-out: In Vitro IC50
Method: Compounds 60r1, 60r2, 60r1.2HCl, 60a, 60b and 60a.HCl were tested against a variety of different types of tumor cells for their ability to inhibit proliferation using standard in vitro antiproliferation assays.

MiaPaCa tumors = conditions: regression model, 10 mg/kg/day daily (3 cycles), oral or i.p.
Method: (§1) Compound 60a.2HCl, was tested for its ability to shrink A549 and Colo205 tumors in a standard xenograft therapeutic model in SCID mice, and Colo205 and MiaPaCa tumors in a standard xenograph regression model in SCID mice. When palpable tumors appeared and were of a preselected volume (approx. 100 mm3 for treatment model; >300 mm3 for regression model), the mice were administered test compounds in the amounts and according to the dosing regimens specified in TABLE 3 (treatment protocol) and TABLE 4 (regression protocol), below.

A549 tumors = conditions: A549, treatment model, 5 days on/2 days off, 10 mg/kg qd, p>0.05
Method: as §1

Colo205 tumors = test system: Colo205 tumors
Method: as §1

T1 sequence (Q96GD4 whole entry): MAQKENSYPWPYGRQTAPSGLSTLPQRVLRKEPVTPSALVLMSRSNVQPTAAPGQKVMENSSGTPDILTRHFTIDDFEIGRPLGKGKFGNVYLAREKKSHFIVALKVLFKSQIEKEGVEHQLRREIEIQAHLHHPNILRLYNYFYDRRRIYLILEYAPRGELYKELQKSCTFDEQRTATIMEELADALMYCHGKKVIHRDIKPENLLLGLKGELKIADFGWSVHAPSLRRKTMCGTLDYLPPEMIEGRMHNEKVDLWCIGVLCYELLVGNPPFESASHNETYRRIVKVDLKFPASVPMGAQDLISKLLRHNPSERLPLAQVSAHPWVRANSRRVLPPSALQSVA

SMILES: Cc1cc(Nc2ncc(F)c(NC3C4C=CC(C4)C3C(N)=O)n2)ccc1N1CCN(C)CC1 (racemic) [Compound 60r1.2HCl, 2-exo-3-exo racemic N4-(3-aminocarbonylbicyclo[2.2.1.]hept-5-ene-2-yl)-5-fluoro-N2-[3-methyl-4-(4-methylpiperazin-1-yl)phenyl]-2,4-pyrimidinediamine bis hydrogen chloride salt]
IC50 (H7299; listed as 60r1-2HCl): 20 to 1000 nM
IC50 [1]: 20 to 1000 nM
IC50 (A549 (lung carcinoma); listed as 60r1-2HCl): 20 to 1000 nM

IC50 [2]: 20 to 1000 nM
IC50 [3]: 20 to 1000 nM
IC50's against tumor cell lines, tested as isolated stereoisomers [4]: micromolar range
IC50 of 60b relative to its enantiomer 60a (Aurora kinase-B): approx. 350 times greater
IC50 (U2OS (bone osteosarcoma)): 20 to 1000 nM
SMILES: Cc1cc(Nc2ncc(F)c(N[C@@H]3[C@H](C(N)=O)[C@H]4C=C[C@@H]3C4)n2)ccc1N1CCN(C)CC1 [Compound 60b, (1S,2S,3R,4R)—N-4-(3-Aminocarbonylbicyclo[2.2.1]hept-5-en-2-yl)-5-fluoro-N2-[3-methyl-(4-methylpiperazin-1-yl)phenyl]-2,4-pyrimidinediamine]

IC50 ([2]; Homo sapiens): 20 to 1000 nM
IC50 ([3]; Homo sapiens, DU-145): 10 to 20 nM
IC50 ([5]; Mus musculus): 10 to 20 nM
IC50 ([6]; Homo sapiens): 20 to 1000 nM
IC50 [7]: 10 to 20 nM
IC50 (H7299): 10 to 20 nM
time plasma concentration remained above the IC50 of 7 nM ([8]; intravenously, 1 mg/kg in saline): 11 h
time plasma concentration was maintained above the IC50 ([8]; orally, 5 mg/kg in saline): over 20 hrs
IC50's against tumor cell lines, tested as isolated stereoisomers [4]: nanomolar range
IC50 ([9]; Homo sapiens, SW-620): 10 to 20 nM
IC50 [10]: 10 to 20 nM
SMILES: Cc1cc(Nc2ncc(F)c(N[C@H]3[C@@H](C(N)=O)[C@@H]4C=C[C@H]3C4)n2)ccc1N1CCN(C)CC1 [Compound 60a, (1R,2R,3S,4S)—N-4-(3-aminocarbonylbicyclo[2.2.1]hept-5-ene-2-yl)-5-fluoro-N2-[3-methyl-4-(4-methylpiperazin-1-yl)phenyl]-2,4-pyrimidinediamine]
potency relative to the (1S,2S,3R,4R) enantiomer ([4]; in general, same cell lines): ~1000 fold

SMILES: Cc1cc(Nc2ncc(F)c(NC3C4C=CC(C4)C3C(N)=O)n2)ccc1N1CCN(C)CC1 (racemic) [Compound 60r1, 2-exo-3-exo racemic N4-(3-aminocarbonylbicyclo[2.2.1]hept-5-ene-2-yl)-5-fluoro-N2-[3-methyl-4-(4-methylpiperazin-1-yl)phenyl]-2,4-pyrimidinediamine]
IC50 [2]: 20 to 1000 nM
IC50 [3]: 10 to 20 nM
IC50 [5]: 20 to 1000 nM
IC50 [6]: 20 to 1000 nM
IC50 (H7299): 10 to 20 nM
IC50 [11]: 10 to 20 nM
IC50 [9]: 20 to 1000 nM
IC50 [12]: 10 to 20 nM
IC50 (A549 (lung carcinoma)): 10 to 20 nM
IC50 (U2OS (bone osteosarcoma)): 10 to 20 nM

SMILES: Cc1cc(Nc2ncc(F)c(N[C@H]3[C@@H](C(N)=O)[C@@H]4C=C[C@H]3C4)n2)ccc1N1CCN(C)CC1.Cl.Cl [Compound 60a.2HCl, (1R,2R,3S,4S)—N-4-(3-aminocarbonylbicyclo[2.2.1]hept-5-ene-2-yl)-5-fluoro-N2-[3-methyl-4-(4-methylpiperazin-1-yl)phenyl]-2,4-pyrimidinediamine bis hydrogen chloride salt]
IC50 [13]: < 10 nM
IC50 [3]: 20 to 1000 nM
IC50 (H7299): 20 to 1000 nM
tumor growth rate (MiaPaCa tumors): Significant reductions in tumor growth rate
reduction in mean tumor volume (A549 tumors): ~40%
tumor growth rate (Colo205 tumors; Colo205, regression model, 10 mg/kg/day oral daily (13 days)): Significant reductions in tumor growth rate
tumor growth rate compared to vehicle control (Colo205 tumors; Colo205, treatment model, daily and pulsed dosing regimens, all dosage levels tested (2 and 10 mg/kg/day oral)): significant (p<0.050) reductions in tumor growth rate
IC50 [1]: 20 to 1000 nM
IC50 (A549 (lung carcinoma)): < 10 nM

Source: patent publication US8044054B2, “Stereoisomerically enriched 3-aminocarbonyl bicycloheptene pyrimidinediamine compounds and their uses” (Rigel Pharmaceuticals, Inc., priority 2004, dated 2011)
